Article PMC6943742, “Peptide/Peptoid Hybrid Oligomers: The Influence of Hydrophobicity and Relative Side-Chain Length on Antibacterial Activity and Cell Selectivity” (Molecules, 2019)
Values after ≈ are worked out from the molar mass of the structure shown. Read-outs that look alike come from different tables or passages of the source. Non-standard residues stand in square brackets, D forms with d. Residues, ends and D or L forms follow the SMILES beside them. N(5-aminopentyl)Gly = NCCCCCNCC(=O)O; Gly(NCH2CH2Ph) = O=C(O)CNCCc1ccccc1; Gly(N-2-aminoethyl) = NCCNCC(=O)O; hPhe = N[C@@H](CCc1ccccc1)C(=O)O; hLys = NCCCCC[C@H](N)C(=O)O; Nphe = O=C(O)CNCc1ccccc1; Orn = NCCC[C@H](N)C(=O)O; Dab = NCC[C@H](N)C(=O)O

Tests used:
[1] = tested on: E. coli ATCC 25922; format: cell-based
Description: (§1) MIC values were evaluated by using the modified Hancock lab protocol in non-binding polystyrene microtitre plates, with bacterial suspensions of ∼2 × 10^5 CFU/mL in Mueller-Hinton broth (Difco, Sparks MD, USA), with Mg^2+ and Ca^2+ concentrations of 4 mg/L each. The compounds were dissolved in H2O and diluted in 0.01% acetic acid, 0.2% BSA (final concentration). Aliquots of 11 µL of 10 × test compounds were then transferred to the appropriate wells with bacterial suspensions. For preparation and transfer of the solutions of the compounds, low-binding sterile tubes and tips (Axygen, Union City CA, USA) were used. After 20 h incubation of covered plates at 35 °C (±2 °C) with circular shaking at 220 rpm, the MICs were read. The antibacterial activity of peptidomimetics was tested against E. coli ATCC 25922, K. pneumoniae ATCC 13883, P. aeruginosa ATCC 27853, P. aeruginosa PAO1, A. baumannii ATCC 19606, S. aureus ATCC 29213, and E. faecalis ATCC 29212.

[2] = tested on: E. faecalis ATCC 29212; format: cell-based
Description: as §1

[3] = tested on: K. pneumoniae ATCC 13883; format: cell-based
Description: as §1

[4] = tested on: P. aeruginosa ATCC 27853; format: cell-based
Description: as §1

[5] = tested on: P. aeruginosa PAO1; format: cell-based
Description: as §1

[6] = tested on: S. aureus ATCC 29213; format: cell-based
Description: as §1

[7] = tested on: HepG2 cell line ATCC HB-8065; assay: in vitro; format: cell-based; settings: 48 h
Description: Side effects affecting cell viability were estimated on the HepG2 cell line ATCC HB-8065. In brief, HepG2 cells were seeded in flat-bottomed 96-well plates at a concentration of 5000 cells per well. At 80−90% confluency, the cells were incubated for 24 h in a humidified incubator (5% CO2, 37 °C). The medium was removed, and the cells were incubated for 48 h in a humidified incubator (5% CO2, 37 °C) with compounds in two-fold serial dilutions. An MTT assay was then performed as previously described. In brief, after incubation with the test compounds, the culture medium was removed and fresh medium with 0.2 mg/mL MTT was added in each well of the plate. After incubation (3 h, 37 °C, 5% CO2), the medium with MTT was removed, and 200 μL dimethyl sulfoxide were added at once to each sample. Absorbance of MTT was measured using spectrophotometer TECAN Infinite M1000 at 540 nm. The relative viability was calculated by using the formula: ODtreated cells × 100/ODcontrol cells. The IC50 values are calculated by using the program Graph Pad Prism® 5.0. For all compounds, the test range was 10–1280 μg/mL.

[8] = in vitro; format: cell-based; settings: human, Hemolytic Activity (percentage hemolysis)
Description: The lysis of human red blood cells was measured as previously described, with modifications. In brief, freshly drawn human red blood cells (hRBCs) were washed three times with PBS buffer and centrifuged two times for 5 min at 2500 rpm. A two-fold serial dilution of peptidomimetics in PBS buffer was added to each well in a sterile polypropylene V-bottom 96-well plate to the total volume of 75 μL. A 0.5% v/v hRBC suspension (75 μL in PBS buffer) was added to each well to reach a final volume of 150 μL in each well. The plate was incubated (37 °C) for 60 min, and then the cells were subsequently pelleted by centrifugation at 1000 rpm for 5 min. The supernatants (50 μL) were transferred to clear, flat-bottomed plastic 96-well plates. The concentration of hemoglobin was detected by measuring the OD at 405 nm. The OD of cells incubated with 0.1% SDS defined 100% hemolysis, while the OD of cells incubated with PBS buffer defined 0% hemolysis. The concentrations tested were 200, 400, and 800 μg/mL (only average values for the highest concentration are stated in Table 2).

[9] = tested on: A. baumannii ATCC 19606; format: cell-based
Description: as §1

[10] = Relative hydrophobicity by RP-HPLC (% MeCN at peak elution); format: physicochemical; settings: RP-HPLC gradient 0 → 60% B during 10 min; % MeCN at peak elution calculated from retention time
Description: The relative hydrophobicity of each peptidomimetic was measured by reverse-phase high-performance liquid chromatography (RP-HPLC). Typically, the RP-HPLC retention time (or percentage acetonitrile at peak elution) constitutes the preferred measure that allows for comparison of relative hydrophobicity, while log P values of polycationic peptides or peptidomimetics normally are considered unsuitable due to the extreme hydrophilic nature of such compounds [11, 45, 57, 58, 59, 60]. […] For both subgroups III (with cationic amino acid residues and the peptoid analogue of Phe, NPhe, i.e., 9–12) and IV (with cationic amino acid residues and the peptoid analogue of hPhe, NhPhe, i.e., 13–16) only minor differences in hydrophobicity were seen. These observations infer that, when the cationic residues are of a peptoid nature, the side-chain length of these has a […] influence on the hydrophobicity. […] Thus, introduction of additional six methylene groups results, as expected, in increased hydrophobicity.
Starting materials and solvents were purchased from commercial suppliers (Iris Biotech, Markredwitz, Germany; Fluorochem, Hadfield, United Kingdom; and Merck, Darmstadt, Germany) and used without further purification. Water used for analytical and preparative high-performance liquid chromatography (HPLC) was filtered through a 0.22-μm Millipore membrane filter. Purity and retention time of each peptidomimetic were determined by analytical UHPLC by using a Phenomenex Luna C18(2) HST column (100 mm × 3 mm; particle size: 2.5 μm; pore size: 100 Å) on a Shimadzu Prominence and Shimadzu Nexera system using an aqueous acetonitrile (MeCN) gradient with 0.1% trifluoroacetic acid (TFA) added (eluent A: 5:95 MeCN–H2O + 0.1% TFA, eluent B: 95:5 MeCN–H2O + 0.1% TFA); a flow rate of 0.5 mL/min was used. For elution of peptidomimetics, a linear gradient of 0% to 60% B during 10 min was used with UV detection at λ = 220 nm. […] For each peptidomimetic, the percentage of MeCN at peak elution was calculated from the retention time by using the following formula:(1) %MeCN = 0.95 (0.6Rt/10 min.) + 0.05 (1−0.6Rt/10 min.).

Compound | MIC ([1]; ATCC 25922, 20 h) [µg/mL] | MIC ([2]; ATCC 29212, 20 h) [µg/mL] | MIC ([3]; ATCC 13883, 20 h) [µg/mL] | MIC ([4]; ATCC 27853, 20 h) [µg/mL] | MIC ([5]; PAO1, 20 h) [µg/mL] | MIC ([6]; ATCC 29213, 20 h) [µg/mL] | IC50 for inhibiting growth of HepG2 cells [7] [µg/mL] | hemolysis at 60 min, 800 µg/mL [8] [%] | MIC ([9]; ATCC 19606, 20 h) [µg/mL] | Hydrophobicity (% MeCN at elution) [10] [%] | Activity against E. faecalis (in words) ([2]; E. faecalis) | Activity against S. aureus (in words) ([6]; S. aureus) | MIC ([9]; A. baumannii ATCC 19606, Gram-negative, 20 h, Mueller-Hinton broth) [µg/mL] | MIC ([1]; E. coli ATCC 25922, Gram-negative, 20 h, Mueller-Hinton broth) [µg/mL] | MIC ([2]; E. faecalis ATCC 29212, Gram-positive, 20 h, Mueller-Hinton broth) [µg/mL] | MIC ([3]; K. pneumoniae ATCC 13883, Gram-negative, 20 h, Mueller-Hinton broth) [µg/mL] | MIC ([4]; P. aeruginosa ATCC 27853, Gram-negative, 20 h, Mueller-Hinton broth) [µg/mL] | MIC ([5]; P. aeruginosa PAO1, Gram-negative, 20 h, Mueller-Hinton broth) [µg/mL] | MIC ([6]; S. aureus ATCC 29213, Gram-positive, 20 h, Mueller-Hinton broth) [µg/mL]
NCC[C@H](NC(=O)CN(Cc1ccccc1)C(=O)[C@H](CCN)NC(=O)CN(Cc1ccccc1)C(=O)[C@H](CCN)NC(=O)CN(Cc1ccccc1)C(=O)[C@H](CCN)NC(=O)CN(Cc1ccccc1)C(=O)[C@H](CCN)NC(=O)CN(Cc1ccccc1)C(=O)[C@@H](N)CCN)C(=O)N(CC(N)=O)Cc1ccccc1 [Peptidomimetic 9] (H-[Dab][Nphe][Dab][Nphe][Dab][Nphe][Dab][Nphe][Dab][Nphe][Dab][Nphe]-NH2) | 2 to 4 | >64 | 32 to 64 | 1 (≈ 0.666 µM) | 2 (≈ 1.33 µM) | >64 | 326 | 79 | – | – | – | – | – | – | – | – | – | – | –
NCC[C@H](NC(=O)CN(CCc1ccccc1)C(=O)[C@H](CCN)NC(=O)CN(CCc1ccccc1)C(=O)[C@H](CCN)NC(=O)CN(CCc1ccccc1)C(=O)[C@H](CCN)NC(=O)CN(CCc1ccccc1)C(=O)[C@H](CCN)NC(=O)CN(CCc1ccccc1)C(=O)[C@@H](N)CCN)C(=O)N(CCc1ccccc1)CC(N)=O [Peptidomimetic 13] (H-[Dab][Gly(NCH2CH2Ph)][Dab][Gly(NCH2CH2Ph)][Dab][Gly(NCH2CH2Ph)][Dab][Gly(NCH2CH2Ph)][Dab][Gly(NCH2CH2Ph)][Dab][Gly(NCH2CH2Ph)]-NH2) | 4 (≈ 2.52 µM) | >64 | 32 (≈ 20.2 µM) | 2 (≈ 1.26 µM) | 2 to 4 | >64 | 261 | 53 | >64 | – | – | – | – | – | – | – | – | – | –
NCCNCC(=O)N[C@@H](CCc1ccccc1)C(=O)N(CCN)CC(=O)N[C@@H](CCc1ccccc1)C(=O)N(CCN)CC(=O)N[C@@H](CCc1ccccc1)C(=O)N(CCN)CC(=O)N[C@@H](CCc1ccccc1)C(=O)N(CCN)CC(=O)N[C@@H](CCc1ccccc1)C(=O)N(CCN)CC(=O)N[C@@H](CCc1ccccc1)C(N)=O [Peptidomimetic 5] (H-[Gly(N-2-aminoethyl)][hPhe][Gly(N-2-aminoethyl)][hPhe][Gly(N-2-aminoethyl)][hPhe][Gly(N-2-aminoethyl)][hPhe][Gly(N-2-aminoethyl)][hPhe][Gly(N-2-aminoethyl)][hPhe]-NH2) | 4 (≈ 2.52 µM) | 32 (≈ 20.2 µM) | 64 (≈ 40.4 µM) | 4 (≈ 2.52 µM) | 16 (≈ 10.1 µM) | 8 (≈ 5.05 µM) | 307 | – | >64 | 43.5 | weak activity | moderate activity | – | – | – | – | – | – | –
NCCC[C@H](NC(=O)CN(Cc1ccccc1)C(=O)[C@H](CCCN)NC(=O)CN(Cc1ccccc1)C(=O)[C@H](CCCN)NC(=O)CN(Cc1ccccc1)C(=O)[C@H](CCCN)NC(=O)CN(Cc1ccccc1)C(=O)[C@H](CCCN)NC(=O)CN(Cc1ccccc1)C(=O)[C@@H](N)CCCN)C(=O)N(CC(N)=O)Cc1ccccc1 [Peptidomimetic 10] (H-[Orn][Nphe][Orn][Nphe][Orn][Nphe][Orn][Nphe][Orn][Nphe][Orn][Nphe]-NH2) | 4 to 8 | >64 | >64 | 2 to 4 | 4 to 8 | >64 | 923 | 10 | – | – | – | – | – | – | – | – | – | – | –
Colistin [reference compound] | – | – | – | – | – | – | – | – | – | – | – | – | 0.5 | 0.125 to 0.25 | >64 | 0.25 | 0.125 to 0.25 | 0.5 | >64
NCCCCC[C@H](NC(=O)CN(CCc1ccccc1)C(=O)[C@H](CCCCCN)NC(=O)CN(CCc1ccccc1)C(=O)[C@H](CCCCCN)NC(=O)CN(CCc1ccccc1)C(=O)[C@H](CCCCCN)NC(=O)CN(CCc1ccccc1)C(=O)[C@H](CCCCCN)NC(=O)CN(CCc1ccccc1)C(=O)[C@@H](N)CCCCCN)C(=O)N(CCc1ccccc1)CC(N)=O [Peptidomimetic 16] (H-[hLys][Gly(NCH2CH2Ph)][hLys][Gly(NCH2CH2Ph)][hLys][Gly(NCH2CH2Ph)][hLys][Gly(NCH2CH2Ph)][hLys][Gly(NCH2CH2Ph)][hLys][Gly(NCH2CH2Ph)]-NH2) | 4 (≈ 2.18 µM) | >64 | >64 | 16 (≈ 8.71 µM) | 32 (≈ 17.4 µM) | >64 | 410 | 9 | – | 41.1 | – | – | – | – | – | – | – | – | –
NCCCCCNCC(=O)N[C@@H](CCc1ccccc1)C(=O)N(CCCCCN)CC(=O)N[C@@H](CCc1ccccc1)C(=O)N(CCCCCN)CC(=O)N[C@@H](CCc1ccccc1)C(=O)N(CCCCCN)CC(=O)N[C@@H](CCc1ccccc1)C(=O)N(CCCCCN)CC(=O)N[C@@H](CCc1ccccc1)C(=O)N(CCCCCN)CC(=O)N[C@@H](CCc1ccccc1)C(N)=O [Peptidomimetic 8] (H-[N(5-aminopentyl)Gly][hPhe][N(5-aminopentyl)Gly][hPhe][N(5-aminopentyl)Gly][hPhe][N(5-aminopentyl)Gly][hPhe][N(5-aminopentyl)Gly][hPhe][N(5-aminopentyl)Gly][hPhe]-NH2) | 2 (≈ 1.09 µM) | >64 | 64 (≈ 34.8 µM) | 64 (≈ 34.8 µM) | 64 (≈ 34.8 µM) | >64 | 266 | 9 | – | 40.9 | – | – | – | – | – | – | – | – | –
